{
  "source": "ChEMBL document CHEMBL5537181",
  "about": "(J Med Chem, 2024)",
  "key": {"[1]": {"molecular_target": "T1, Neuronal acetylcholine receptor subunit alpha-7 (Homo sapiens, UniProt P36544)", "T1 sequence (P36544 whole entry)": "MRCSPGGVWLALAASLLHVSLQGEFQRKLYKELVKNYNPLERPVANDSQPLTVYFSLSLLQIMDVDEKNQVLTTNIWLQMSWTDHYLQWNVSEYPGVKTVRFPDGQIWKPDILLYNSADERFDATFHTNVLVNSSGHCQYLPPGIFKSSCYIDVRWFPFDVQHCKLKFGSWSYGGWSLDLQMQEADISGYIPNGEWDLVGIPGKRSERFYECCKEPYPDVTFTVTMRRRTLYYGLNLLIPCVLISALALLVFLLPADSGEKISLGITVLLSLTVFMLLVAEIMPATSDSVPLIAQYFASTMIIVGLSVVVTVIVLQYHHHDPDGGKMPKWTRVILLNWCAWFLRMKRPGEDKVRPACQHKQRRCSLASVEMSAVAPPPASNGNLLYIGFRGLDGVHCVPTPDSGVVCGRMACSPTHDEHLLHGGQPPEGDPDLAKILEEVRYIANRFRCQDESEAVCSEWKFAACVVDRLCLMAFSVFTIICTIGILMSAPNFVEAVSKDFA", "assay": "Antagonist activity at human alpha7 nAChR expressed in acetylcholine-induced Xenopus laevis oocytes assessed as inhibition of acetylcholine-induced current by two electrode voltage-clamp assay", "type": "cell-based, Oocyte"}, "[2]": {"molecular_target": "Sodium channel protein type 10 subunit alpha (Homo sapiens) (UniProt Q9Y5Y9)", "assay": "Inhibition of Nav1.8 (unknown origin) at 1 uM"}, "[3]": {"molecular_target": "T1, Neuronal acetylcholine receptor subunit alpha-7", "assay": "Antagonist activity at human alpha7 nAChR expressed in acetylcholine-induced Xenopus laevis oocytes assessed as inhibition of acetylcholine-induced current at 30 nM by two electrode voltage-clamp assay", "type": "cell-based", "settings": "Oocyte, filed as antagonist"}, "Rattus norvegicus [4]": {"system": "Rattus norvegicus", "assay": "Analgesic activity in Chronic constriction injury rat model assessed as decrease in hyperalgesia at 250 microg/kg,IM administrated every 2 hrs for 7 days", "type": "functional, organism-based", "settings": "dose 250.0 µg/kg, time 7.0 day"}, "[5]": {"molecular_target": "T2, Voltage-dependent N-type calcium channel subunit alpha-1B (Homo sapiens, UniProt Q00975)", "T2 sequence (Q00975 whole entry, looked up)": "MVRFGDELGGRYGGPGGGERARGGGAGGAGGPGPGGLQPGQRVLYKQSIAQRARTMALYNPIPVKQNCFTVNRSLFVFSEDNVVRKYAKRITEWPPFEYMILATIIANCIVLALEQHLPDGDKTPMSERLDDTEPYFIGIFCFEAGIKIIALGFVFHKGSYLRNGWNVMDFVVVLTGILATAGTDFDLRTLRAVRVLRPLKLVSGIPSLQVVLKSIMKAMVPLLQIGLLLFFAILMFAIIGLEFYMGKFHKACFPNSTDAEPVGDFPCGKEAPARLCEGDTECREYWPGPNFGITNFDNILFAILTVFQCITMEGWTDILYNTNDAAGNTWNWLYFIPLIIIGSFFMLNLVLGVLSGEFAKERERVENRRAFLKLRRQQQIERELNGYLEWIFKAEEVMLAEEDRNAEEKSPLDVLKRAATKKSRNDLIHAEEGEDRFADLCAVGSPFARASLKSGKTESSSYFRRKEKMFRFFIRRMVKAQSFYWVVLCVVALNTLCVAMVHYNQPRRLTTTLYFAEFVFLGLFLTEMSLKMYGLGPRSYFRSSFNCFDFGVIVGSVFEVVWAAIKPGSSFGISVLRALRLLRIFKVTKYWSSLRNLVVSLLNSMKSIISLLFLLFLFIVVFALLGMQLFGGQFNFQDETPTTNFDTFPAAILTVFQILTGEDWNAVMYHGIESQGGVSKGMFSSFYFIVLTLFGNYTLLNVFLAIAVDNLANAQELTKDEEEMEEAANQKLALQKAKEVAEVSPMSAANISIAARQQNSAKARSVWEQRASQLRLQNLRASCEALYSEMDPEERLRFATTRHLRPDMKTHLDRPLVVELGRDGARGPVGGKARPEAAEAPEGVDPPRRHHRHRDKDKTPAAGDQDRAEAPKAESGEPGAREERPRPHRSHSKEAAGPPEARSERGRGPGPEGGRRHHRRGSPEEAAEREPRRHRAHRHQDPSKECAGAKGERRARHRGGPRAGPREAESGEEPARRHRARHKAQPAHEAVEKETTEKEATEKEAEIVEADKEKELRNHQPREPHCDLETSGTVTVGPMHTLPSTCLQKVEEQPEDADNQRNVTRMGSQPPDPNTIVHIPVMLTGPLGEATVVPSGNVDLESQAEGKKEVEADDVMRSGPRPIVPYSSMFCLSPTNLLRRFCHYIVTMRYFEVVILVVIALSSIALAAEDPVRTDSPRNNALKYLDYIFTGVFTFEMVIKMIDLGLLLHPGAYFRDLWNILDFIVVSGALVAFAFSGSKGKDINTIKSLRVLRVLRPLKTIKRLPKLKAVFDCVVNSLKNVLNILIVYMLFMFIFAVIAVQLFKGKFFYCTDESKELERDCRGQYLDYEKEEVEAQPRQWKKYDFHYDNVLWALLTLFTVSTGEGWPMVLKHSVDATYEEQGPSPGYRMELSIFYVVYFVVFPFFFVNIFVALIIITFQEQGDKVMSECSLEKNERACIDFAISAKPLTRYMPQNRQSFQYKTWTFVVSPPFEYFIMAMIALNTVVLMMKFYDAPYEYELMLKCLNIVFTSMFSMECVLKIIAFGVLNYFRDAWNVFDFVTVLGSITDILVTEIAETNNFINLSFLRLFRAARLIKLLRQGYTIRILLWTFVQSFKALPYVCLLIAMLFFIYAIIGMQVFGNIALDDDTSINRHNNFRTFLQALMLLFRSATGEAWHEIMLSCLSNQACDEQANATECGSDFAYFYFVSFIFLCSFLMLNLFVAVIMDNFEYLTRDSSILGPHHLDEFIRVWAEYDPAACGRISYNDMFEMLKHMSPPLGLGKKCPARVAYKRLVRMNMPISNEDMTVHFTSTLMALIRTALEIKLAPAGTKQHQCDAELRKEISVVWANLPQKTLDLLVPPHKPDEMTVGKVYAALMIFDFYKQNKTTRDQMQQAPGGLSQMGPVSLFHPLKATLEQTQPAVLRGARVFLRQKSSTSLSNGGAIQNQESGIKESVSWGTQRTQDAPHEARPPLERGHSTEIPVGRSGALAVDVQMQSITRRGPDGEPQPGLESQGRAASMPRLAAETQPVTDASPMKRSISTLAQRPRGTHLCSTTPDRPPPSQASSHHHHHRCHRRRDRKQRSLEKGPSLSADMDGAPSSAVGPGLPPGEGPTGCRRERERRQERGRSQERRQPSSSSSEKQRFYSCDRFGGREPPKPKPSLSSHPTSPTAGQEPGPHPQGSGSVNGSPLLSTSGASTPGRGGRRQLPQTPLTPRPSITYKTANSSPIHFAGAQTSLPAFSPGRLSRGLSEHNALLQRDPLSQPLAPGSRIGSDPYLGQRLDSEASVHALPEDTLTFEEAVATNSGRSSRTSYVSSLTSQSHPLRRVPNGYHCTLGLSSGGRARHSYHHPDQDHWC", "assay": "Inhibition of human Cav2.2 channel transfected in HEK293T cells assessed as inhibition of Cav2.2-mediated Ba2+ current at 1 uM measured for 3 to 5 days by whole-cell patch clamp assay", "type": "cell-based", "settings": "time 3-5 day"}, "[6]": {"molecular_target": "Neuronal acetylcholine receptor; alpha3/beta2 (Rattus norvegicus) (UniProt P04757+P12390)", "assay": "Antagonist activity at rat alpha3beta2 nAChR expressed in acetylcholine-induced Xenopus laevis oocytes assessed as inhibition of acetylcholine-induced current at 100 nM by two electrode voltage-clamp assay", "type": "cell-based", "settings": "Oocyte"}, "[7]": {"molecular_target": "T1, Neuronal acetylcholine receptor subunit alpha-7", "assay": "Antagonist activity at human alpha7 nAChR expressed in acetylcholine-induced Xenopus laevis oocytes assessed as inhibition of acetylcholine-induced current at 100 nM by two electrode voltage-clamp assay", "type": "cell-based", "settings": "Oocyte, filed as antagonist"}, "[8]": {"molecular_target": "T3, Neuronal acetylcholine receptor; alpha9/alpha10 (Homo sapiens) (UniProt Q9UGM1+Q9GZZ6)", "assay": "Antagonist activity at human alpha9alpha10 nAChR expressed in acetylcholine-induced Xenopus laevis oocytes assessed as inhibition of acetylcholine-induced current at 30 nM at -40 mV holding potential by two electrode voltage-clamp assay", "type": "cell-based", "settings": "Oocyte, filed as antagonist"}, "[9]": {"molecular_target": "T3, Neuronal acetylcholine receptor; alpha9/alpha10 (Homo sapiens)", "assay": "Antagonist activity at human wild type alpha9alpha10 nAChR expressed in acetylcholine-induced Xenopus laevis oocytes assessed as inhibition of acetylcholine-induced current at 30 nM by two electrode voltage-clamp assay relative to control", "type": "cell-based", "settings": "Oocyte, filed as antagonist"}, "Rattus norvegicus [10]": {"system": "Rattus norvegicus", "assay": "Analgesic activity in Chronic constriction injury rat model assessed as decrease in hyperalgesia at 250 microg/kg,IM administration and measured for 0.5 to 48 hrs", "type": "functional, organism-based", "settings": "dose 250.0 µg/kg, time 0.5-48 hrs"}, "[11]": {"assay": "Toxicity in rat assessed as change in behavior at 250 microg/kg,IM administrated for 14 consecutive days by conditioned place preference assay", "settings": "in vivo, 0.25 mg/kg, dose 250 µg/kg"}, "[12]": {"assay": "Antagonist activity at human alpha9N152G mutant alpha10 nAChR expressed in acetylcholine-induced Xenopus laevis oocytes assessed as inhibition of acetylcholine-induced current at 1:1 ratio of protein by two electrode voltage-clamp assay", "type": "cell-based", "settings": "Oocyte"}, "Rattus norvegicus [13]": {"system": "Rattus norvegicus", "assay": "Analgesic activity in Chronic constriction injury rat model assessed as increase in paw withdrawal latency at 250 microg/kg,IM administration and measured for 0.5 to 48 hrs", "type": "functional, organism-based", "settings": "dose 250.0 µg/kg, time 0.5-48 hrs"}, "[14]": {"molecular_target": "Neuronal acetylcholine receptor; alpha3/beta4 (Rattus norvegicus) (UniProt P04757+P12392)", "assay": "Antagonist activity at rat alpha3beta4 nAChR expressed in acetylcholine-induced Xenopus laevis oocytes assessed as inhibition of acetylcholine-induced current at 100 nM by two electrode voltage-clamp assay relative to control", "type": "cell-based", "settings": "Oocyte"}, "[15]": {"molecular_target": "T2, Voltage-dependent N-type calcium channel subunit alpha-1B", "assay": "Inhibition of human Cav2.2 channel transfected in HEK293T cells co-expressed with human GABAB receptor assessed as inhibition of Cav2.2-mediated Ba2+ current at 100 nM in presence of CGP 55845 measured for 3 to 5 days by whole-cell patch clamp assay", "type": "cell-based", "settings": "time 3-5 day"}, "Rattus norvegicus [16]": {"system": "Rattus norvegicus", "assay": "Analgesic activity in Chronic constriction injury rat model assessed as decrease in hyperalgesia at 250 microg/kg,IM administrated every 2 hrs for 14 days", "type": "functional, organism-based", "settings": "dose 250.0 µg/kg, time 14.0 day"}, "[17]": {"molecular_target": "T2, Voltage-dependent N-type calcium channel subunit alpha-1B", "assay": "Inhibition of human Cav2.2 channel transfected in HEK293T cells assessed as inhibition of Cav2.2-mediated Ba2+ current at 1 uM measured for 3 to 5 days by whole-cell patch clamp assay relative to control", "type": "cell-based", "settings": "time 3-5 day"}, "[18]": {"molecular_target": "T2, Voltage-dependent N-type calcium channel subunit alpha-1B", "assay": "Inhibition of human Cav2.2 channel transfected in HEK293T cells co-expressed with human GABAB receptor assessed as inhibition of Cav2.2-mediated Ba2+ current at 100 nM measured for 3 to 5 days by whole-cell patch clamp assay", "type": "cell-based", "settings": "time 3-5 day"}, "[19]": {"molecular_target": "T4, Acid-sensing ion channel 3 (Homo sapiens) (UniProt Q9UHC3)", "T4 sequence (whole entry)": "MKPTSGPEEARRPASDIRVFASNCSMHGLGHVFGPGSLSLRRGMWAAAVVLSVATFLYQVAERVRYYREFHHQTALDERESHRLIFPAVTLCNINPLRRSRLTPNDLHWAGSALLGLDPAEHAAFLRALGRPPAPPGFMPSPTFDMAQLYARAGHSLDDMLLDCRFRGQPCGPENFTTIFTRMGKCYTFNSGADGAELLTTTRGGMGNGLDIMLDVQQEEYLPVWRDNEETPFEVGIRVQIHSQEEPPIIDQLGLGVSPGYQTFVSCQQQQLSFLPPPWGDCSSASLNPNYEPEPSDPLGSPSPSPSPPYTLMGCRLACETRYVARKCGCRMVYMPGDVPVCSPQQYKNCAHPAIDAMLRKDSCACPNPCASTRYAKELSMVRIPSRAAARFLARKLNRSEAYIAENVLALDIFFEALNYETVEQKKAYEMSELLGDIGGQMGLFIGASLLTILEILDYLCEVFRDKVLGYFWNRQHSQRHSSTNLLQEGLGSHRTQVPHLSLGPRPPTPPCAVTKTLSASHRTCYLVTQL", "assay": "Inhibition of ASIC3 (unknown origin) at 1 uM"}, "[20]": {"molecular_target": "Neuronal acetylcholine receptor; alpha4/beta2 (Rattus norvegicus) (UniProt P09483+P12390)", "assay": "Antagonist activity at rat alpha4beta2 nAChR expressed in acetylcholine-induced Xenopus laevis oocytes assessed as inhibition of acetylcholine-induced current at 100 nM by two electrode voltage-clamp assay", "type": "cell-based", "settings": "Oocyte"}, "[21]": {"molecular_target": "Sodium channel protein type 9 subunit alpha (Homo sapiens) (UniProt Q15858)", "sequence (Q15858 whole entry, looked up)": "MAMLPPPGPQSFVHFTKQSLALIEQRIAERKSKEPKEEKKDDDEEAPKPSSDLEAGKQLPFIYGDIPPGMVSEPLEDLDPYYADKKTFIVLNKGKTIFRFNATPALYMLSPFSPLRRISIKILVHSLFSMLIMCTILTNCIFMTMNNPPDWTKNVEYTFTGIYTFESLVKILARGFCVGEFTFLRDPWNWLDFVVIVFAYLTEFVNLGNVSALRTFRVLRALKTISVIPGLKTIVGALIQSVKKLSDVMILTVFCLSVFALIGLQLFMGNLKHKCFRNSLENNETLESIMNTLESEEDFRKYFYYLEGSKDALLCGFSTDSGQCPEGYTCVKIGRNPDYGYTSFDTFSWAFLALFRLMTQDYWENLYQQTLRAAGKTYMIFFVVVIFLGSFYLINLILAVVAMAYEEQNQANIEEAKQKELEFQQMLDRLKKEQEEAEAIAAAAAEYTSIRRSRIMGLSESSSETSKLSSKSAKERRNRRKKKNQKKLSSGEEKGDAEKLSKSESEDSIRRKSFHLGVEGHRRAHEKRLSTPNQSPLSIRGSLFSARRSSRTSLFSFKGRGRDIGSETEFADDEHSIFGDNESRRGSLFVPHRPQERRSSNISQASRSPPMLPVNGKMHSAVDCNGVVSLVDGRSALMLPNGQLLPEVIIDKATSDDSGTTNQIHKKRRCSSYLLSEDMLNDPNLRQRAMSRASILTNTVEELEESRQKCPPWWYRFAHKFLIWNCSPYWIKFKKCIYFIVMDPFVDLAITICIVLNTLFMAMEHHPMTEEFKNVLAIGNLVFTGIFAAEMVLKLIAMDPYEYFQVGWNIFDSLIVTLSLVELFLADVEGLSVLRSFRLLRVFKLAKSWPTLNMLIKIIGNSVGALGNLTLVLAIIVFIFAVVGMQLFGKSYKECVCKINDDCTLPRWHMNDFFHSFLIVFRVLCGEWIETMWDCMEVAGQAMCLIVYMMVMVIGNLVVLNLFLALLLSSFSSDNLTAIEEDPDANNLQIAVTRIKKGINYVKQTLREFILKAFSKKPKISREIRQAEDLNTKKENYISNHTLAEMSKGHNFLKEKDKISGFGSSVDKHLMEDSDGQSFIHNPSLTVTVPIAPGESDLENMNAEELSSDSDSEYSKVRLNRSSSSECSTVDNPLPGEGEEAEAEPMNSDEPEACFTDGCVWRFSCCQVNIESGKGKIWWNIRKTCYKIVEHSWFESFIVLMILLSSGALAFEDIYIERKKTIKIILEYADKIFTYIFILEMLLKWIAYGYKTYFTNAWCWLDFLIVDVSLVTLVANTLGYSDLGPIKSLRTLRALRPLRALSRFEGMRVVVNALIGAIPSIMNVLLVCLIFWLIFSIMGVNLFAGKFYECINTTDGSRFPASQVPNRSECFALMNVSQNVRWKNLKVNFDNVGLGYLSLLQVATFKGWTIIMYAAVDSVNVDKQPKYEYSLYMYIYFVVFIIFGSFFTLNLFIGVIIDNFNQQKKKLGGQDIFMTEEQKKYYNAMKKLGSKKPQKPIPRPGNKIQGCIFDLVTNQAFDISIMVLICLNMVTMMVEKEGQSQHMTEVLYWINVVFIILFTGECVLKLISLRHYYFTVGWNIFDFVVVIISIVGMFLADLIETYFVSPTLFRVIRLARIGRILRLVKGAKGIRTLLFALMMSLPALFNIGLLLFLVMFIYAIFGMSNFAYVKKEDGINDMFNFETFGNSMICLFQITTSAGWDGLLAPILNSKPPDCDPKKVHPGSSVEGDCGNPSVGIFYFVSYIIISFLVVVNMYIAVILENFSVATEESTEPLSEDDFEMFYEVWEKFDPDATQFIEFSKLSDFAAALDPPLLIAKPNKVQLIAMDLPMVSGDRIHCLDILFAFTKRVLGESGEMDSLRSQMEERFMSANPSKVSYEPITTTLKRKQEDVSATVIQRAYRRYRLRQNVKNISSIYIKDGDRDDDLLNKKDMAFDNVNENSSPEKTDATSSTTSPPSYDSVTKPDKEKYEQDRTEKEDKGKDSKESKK", "assay": "Inhibition of Nav1.7 (unknown origin) at 1 uM"}, "[22]": {"assay": "Toxicity in rat assessed as motor impairment at 250 microg/kg,IM administrated for 14 consecutive days by rotarod test", "settings": "in vivo, 0.25 mg/kg, dose 250 µg/kg"}, "[23]": {"assay": "Antagonist activity at human alpha9N152G mutant alpha10 nAChR expressed in acetylcholine-induced Xenopus laevis oocytes assessed as inhibition of acetylcholine-induced current at 1:3 ratio of protein by two electrode voltage-clamp assay", "type": "cell-based", "settings": "Oocyte"}, "[24]": {"assay": "Antagonist activity at human alpha9alpha10G152N mutant nAChR expressed in acetylcholine-induced Xenopus laevis oocytes assessed as inhibition of acetylcholine-induced current at 1:3 ratio of protein by two electrode voltage-clamp assay", "type": "cell-based", "settings": "Oocyte"}, "[25]": {"molecular_target": "Neuronal acetylcholine receptor; alpha3/beta2 (Homo sapiens) (UniProt P17787+P32297)", "assay": "Antagonist activity at human alpha3beta2 nAChR expressed in acetylcholine-induced Xenopus laevis oocytes assessed as inhibition of acetylcholine-induced current at 100 nM by two electrode voltage-clamp assay relative to control", "type": "cell-based", "settings": "Oocyte"}},
  "note": "Calls of active or inactive are those of the source. The calls are words filed in the database; no cut-off is given here.",
  "data": [
    {"compound": "CC[C@H](C)[C@H](NC(=O)[C@H](CCCNC(=N)N)NC(=O)[C@H](CCCNC(=N)N)NC(=O)[C@H](Cc1ccc(O)cc1)NC(=O)[C@H](CCCNC(=N)N)NC(=O)[C@H](CCCNC(=N)N)NC(=O)[C@H](CCCNC(=N)N)NC(=O)[C@H](CCCNC(=N)N)NC(=O)[C@H](CC(=O)O)NC(=O)[C@H](Cc1ccc(O)cc1)NC(=O)[C@@H]1CCCN1C(=O)[C@H](CO)NC(=O)[C@H](CCCNC(=N)N)NC(=O)[C@H](Cc1ccc(O)cc1)NC(=O)[C@H](CCCNC(=N)N)NC(=O)CN)C(=O)N[C@H](C(=O)N[C@@H](CC(=O)O)C(N)=O)[C@@H](C)O", "values": [
      {"measurement": "IC50", "setting": "[1]", "value": 43.8, "unit": "nM"},
      {"measurement": "inhibition", "setting": "[2]", "value": "inactive"},
      {"measurement": "inhibition", "setting": "[3]", "value": 40, "unit": "%"},
      {"measurement": "Activity", "setting": "Rattus norvegicus [4]", "value": "Active"},
      {"measurement": "inhibition", "setting": "[5]", "value": "inactive"},
      {"measurement": "inhibition", "setting": "[6]", "value": "inactive"},
      {"measurement": "inhibition", "setting": "[7]", "value": 80, "unit": "%"},
      {"measurement": "inhibition", "setting": "[8]", "value": "Active"},
      {"measurement": "inhibition", "setting": "[9]", "value": 50, "unit": "%"},
      {"measurement": "Activity", "setting": "Rattus norvegicus [10]", "value": "Active"},
      {"measurement": "Activity", "setting": "[11]", "value": "Non-Toxic"},
      {"measurement": "IC50", "setting": "[12]", "value": 3.6, "unit": "nM"},
      {"measurement": "Activity", "setting": "Rattus norvegicus [13]", "value": "Active"},
      {"measurement": "inhibition", "setting": "[14]", "value": 20, "unit": "%"},
      {"measurement": "inhibition", "setting": "[15]", "value": "inactive"},
      {"measurement": "Activity", "setting": "Rattus norvegicus [16]", "value": "Active"},
      {"measurement": "inhibition", "setting": "[17]", "value": 53.6, "unit": "%"},
      {"measurement": "inhibition", "setting": "[18]", "value": "Active"},
      {"measurement": "inhibition", "setting": "[19]", "value": "inactive"},
      {"measurement": "inhibition", "setting": "[20]", "value": "inactive"},
      {"measurement": "inhibition", "setting": "[21]", "value": "inactive"},
      {"measurement": "Activity", "setting": "[22]", "value": "Non-Toxic"},
      {"measurement": "IC50", "setting": "[23]", "value": 8.8, "unit": "nM"},
      {"measurement": "IC50", "setting": "[24]", "value": 21, "unit": "nM"},
      {"measurement": "inhibition", "setting": "[25]", "value": 25, "unit": "%"}
    ]}
  ]
}
